How the values were obtained:
SC LS-174T tumours = assay: Human LS-174T colon tumour xenografts in Nude mice, tumour growth delay; format: in vivo; conditions: ZD6126 200 mg/kg IP, 5-FU 75 mg/kg IV, CPT-11 25 mg/kg IV; for MEDIAN TIME TO REACH TUMOUR SIZE OF 2 CM^3: SC LS-174T xenografts in Nude mice, weekly x3 (Days 1, 8, 15), in combinations ZD6126 2 hours after the other agent; for T - C (DAYS), tumour growth delay: difference in median time to reach 2 cm^3, treatment vs vehicle control, weekly x3
Procedure: Human LS-174T Colon Tumour Xenografts in Nude Mice […] Mice were randomised into 6 groups of 15-18 mice per group. Group 1—control Group 2—received 3 weekly intraperitoneal (IP) injections of ZD6126 at 200 mg/kg on Days 1, 8 and 15 Group 3—received 3 weekly intravenous (IV) injections of 5-FU at 75 mg/kg on Days 1, 8 and 15 Group 4—received 3 weekly IV injections of CPT-11 alone at 25 mg/kg on Days 1, 8 and 15. Group 5—received 3 weekly IP injections of ZD6126 at 200 mg/kg on Days 1, 8 and 15 and 3 weekly IV injections of 5-FU at 75 mg/kg Days 1, 8 and 15. Group 6—received 3 weekly IP injections of ZD6126 at 200 mg/kg on Days 1, 8 and 15 and 3 weekly IV injections of CPT-11 at 25 mg/kg on Days 1, 8 and 15. In groups 5 and 6, when animals received both ZD6126 and CPT-11 or 5-FU on the same day, the ZD6126 was administered 2 hours after the CPT-11 or 5-FU. [table] For all animals, the tumour size was measured twice a week with calipers, and the tumour volume (mm^3) was estimated according to the formula: {[(Square root of Length×Width)×(Length×Width)]×0.5236}. The mice were sacrificed when tumours grew beyond 10% of bodyweight. Treatment efficacy was assessed in terms of the effects on the tumour volumes of treated mice relative to vehicle-treated mice and expressed as growth delay. Growth delay T-(C) was calculated as the difference in the median growth time of the treatment group (T) and the vehicle control group (C) to reach a tumor size of 2 cm^3.

tumour vasculature = conditions: reported in Proc. Am. Assoc. Cancer Res. 2000; 41: 329; cited from earlier work

Structure (SMILES) | MEDIAN TIME TO REACH TUMOUR SIZE OF 2 CM^3 (SC LS-174T tumours) [days] | T - C (DAYS), tumour growth delay (SC LS-174T tumours) [days] | effect on tumour vasculature (tumour vasculature)
CCc1c2c(nc3ccc(OC(=O)N4CCC(N5CCCCC5)CC4)cc13)-c1cc3c(c(=O)n1C2)COC(=O)[C@]3(O)CC [CPT-11, irinotecan] | 17 | 8 | –
COc1cc2c(c(OC)c1OC)-c1ccc(OP(=O)(O)O)cc1[C@@H](NC(C)=O)CC2 [ZD6126, (5S)-5-(acetylamino)-9,10,11-trimethoxy-6,7-dihydro-5H-dibenzo[a,c]cyclohepten-3-yl dihydrogen phosphate] | 17 | 8 | selectively disrupts tumour vasculature leading to vessel occlusion and extensive tumour necrosis
O=c1[nH]cc(F)c(=O)[nH]1 [5-FU, 5-fluorouracil] | 14 | 5 | –

Source: patent US20060142239A1, “Potassium or sodium salt of (-)-2-(4-hydroxyphenyl)ethyl!-thio-3-'4-{4-'(methzlsulfonzl)oxy !phenoxy}phenyl!propanoic acid and their use in medicine” (priority 2003, published 2006)
